Reference: ChEMBL document CHEMBL1126250, “Alpha-halo [(phenylphosphinyl)methyl]phosphonates as specific inhibitors of Na(+)-gradient-dependent Na(+)-phosphate cotransport across renal brush border membrane” (1992)

Species: Rattus norvegicus
Assay: In vitro inhibition of Na(+)-gradient-dependent uptake of 32 inorganic phosphate (Pi) by BBM vesicles freshly prepared from the rat renal cortex
Type: functional
Set-up: concentration or dose not given beside the values

SMILES | Inhibition [%]
O=P(O)(O)C(Cl)(Br)P(=O)(O)c1ccccc1 (configuration not stated) | -31
O=P(O)(O)C(Cl)(Cl)P(=O)(O)c1ccccc1 | -39
O=P(O)(O)C(F)P(=O)(O)c1ccccc1 (configuration not stated) | -49
O=P(O)(O)C(F)(F)P(=O)(O)c1ccccc1 | -39
O=P(O)(O)C(Cl)P(=O)(O)c1ccccc1 (configuration not stated) | -30
O=P(O)(O)C(Br)(Br)P(=O)(O)c1ccccc1 | -22
O=C(O)P(=O)(O)O [FOSCARNET] | -63
